Assay results: US20260242320A1, “USE OF CANNABIDIOL DERIVATIVE IN PREPARATION OF MEDICAMENT” (priority 2023, published 2026)

Legend:
BV-2 cellular viability = assay: Cell viability / cytotoxicity by crystal violet staining; type: cell-based
Description: 100 μL of culture medium were transferred to a black 96-well plate for later use. Following removal of old culture medium, 100 μL of 4% paraformaldehyde was added for fixation. Fixation was performed for 5 minutes. Paraformaldehyde was then removed, and 100 μL of 0.05% crystal violet was added. The resultant mixture was incubated for 15 minutes, after which time crystal violet was removed and the mixture was slowly rinsed with water three times. Next, 150 μL of ethanol was added, and the mixture was incubated for 15 minutes. After incubation, the absorbance was measured at 540 nm using a spectrophotometer. Viability (%)=100× Fluorescence values of the dosing group/Fluorescence values of the blank group.
Cell viability was determined by crystal violet staining. Briefly, BV-2 cells were treated as indicated in the NO assay. The media was removed, and then 4% paraformaldehyde was added to fix the cells for 5 min. Cells were stained with 100 μL 0.05% crystal violet for 15 min and washed with water 2 times. Next, 150 μL of ethanol was added to each well, and the plate was incubated for 15 min at room temperature. Absorbance at 540 nm was measured using a SYNERGY H1 Microplate Reader.

[1] = system: LPS-induced IL-1β, TNF-α, IL-6, iNOS, IL-10 mRNA in BV-2 cells; assay: qRT-PCR of proinflammatory and M1/M2 marker mRNAs in LPS-treated BV-2 cells; type: cell-based
Description: (§1) Total RNA was extracted from cells or mouse brains using the RNeasy Mini Kit. Isolated RNA was reverse-transcribed into cDNA using an RT2 Easy First Strand cDNA Synthesis Kit following the manufacturer's protocols. PCR amplification was conducted using synthetic primers, SYBR Green, and a TOptical Real-Time qPCR Thermal Cycler (Analytik Jena, Thuringia, Germany). The data were analyzed by the […] method, and Rpl711 or Rpl27 was used as an internal control.

[2] = Pharmacokinetic profiles in brain and plasma after oral administration; type: in vivo, mice
Description: Following administration, mice (BALB/c, male, 20-25 g) were sacrificed at 0.5, 1, 2, 3, and 4 h. The blood and brain tissue were collected and extracted with acetonitrile.

[3] = Respiratory rate determination; type: in vivo, mice; settings: CIAC001 20 mg/kg i.p.; THC 10 mg/kg i.p.
Description: (§2) Mice were intraperitoneally injected with 20 mg/kg CIAC001 or 10 mg/kg THC once daily. After 1 h, the mice were anesthetized with isoflurane by a small animal anesthesia machine (R500IE, RWD Life Science Co) on day 2 and day 5. The respiratory rate of mice was recorded three times within 20 s. The weights of mice were recorded every day.

[4] = Body weight during 7 days of administration; type: in vivo, mice; settings: during drug treatment vs vehicle
Description: as §2

[5] = system: lactate dehydrogenase A (LDHA) mRNA; assay: LDHA mRNA in LPS-treated BV-2 cells; type: cell-based; settings: 3 hours
Description: as §1

[6] = system: 3×Tg Alzheimer's disease mice; assay: Anxiety tests in Alzheimer's disease model mice (high plus maze, open field); type: in vivo; settings: i.p., 45 days
From the text: For Alzheimer's disease behavioral experiments (Morris water maze, open field experiment, novel object recognition, Y-maze, and elevated cross maze), triple transgenic mouse models (B6:129-Psen1tm1Mpm Tg (APPswe, tauP301L) 1Lfa/J, 3×Tg) were purchased from the Jax Laboratory in the United States. The wild-type mice (C57BL/6J, WT) were purchased from Beijing Vital River Laboratory Animal Technology Co., Ltd. After 45 days of intraperitoneal injection of CIAC001, all mice were subjected to subsequent behavioral experiments. In order to minimize the use of mice, the mice are first tested for sufficient physical strength and normal mental states. Only one behavioral experiment is conducted per day based on the following schedule: day 1: open field test; day 2-3: novel object recognition; day 3: elevated plus maze; day 4: Y-maze; day 5-13: Morris water maze.
The elevated cross maze consisted of two intersecting open arms (25×5×0.5 cm) and two enclosed arms (25×5×16 cm) that were perpendicular to the open arms. A platform (5×5×0.5 cm) was placed in the center of the maze. […]
At the beginning of the experiment, the mouse was placed in the center area of the elevated cross maze, facing one of the enclosed arms. […] A camera connected to a computer was used to capture the mouse's movements, and the number of entries and time spent in the open and enclosed arms were recorded. […]

[7] = system: hippocampus of transgene mice; assay: Potential of hippocampus (LTP) measurement; type: in vivo
Description: Mouse brains were quickly removed following anesthetization using isoflurane and euthanasia by cervical dislocation and immersed in pre-chilled artificial cerebrospinal fluid (ACSF) for 3 minutes while continuously supplying O2 to the fluid to maintain brain activity. Then, the brain was then quickly fixed with glue onto a platform of a vibratome (with the olfactory bulb facing up and the hindbrain facing down) and placed in well-oxygenated, pre-chilled ACSF. The brain was then sliced at 300 μm per slice with a cutting speed of 0.14 mm/s, starting from the appearance of the hippocampus. The collected brain slices were divided into left and right hemispheres and incubated in an O2-filled water bath at 32° C. for 2 hours. Afterwards, computer software used for recording was adjusted to ensure a stable baseline. The incubated brain slices were placed in the center of an electrode, with the brightest line of the CA1 region in the hippocampus spanning diagonally across the baseline, and fixed with a grid and iron block inside the recording device. Each potential in the electrode was stimulated to find the optimal stimulation point. High-frequency stimulation was then performed at the optimal point. Software was then used to record the changes in electrical potential at each electrode point.

PKM2 = PKM2 (Mus musculus, UniProt P52480); assay: Pull-down with probes 19e/19f and western blotting
PKM2, sequence (P52480 whole entry): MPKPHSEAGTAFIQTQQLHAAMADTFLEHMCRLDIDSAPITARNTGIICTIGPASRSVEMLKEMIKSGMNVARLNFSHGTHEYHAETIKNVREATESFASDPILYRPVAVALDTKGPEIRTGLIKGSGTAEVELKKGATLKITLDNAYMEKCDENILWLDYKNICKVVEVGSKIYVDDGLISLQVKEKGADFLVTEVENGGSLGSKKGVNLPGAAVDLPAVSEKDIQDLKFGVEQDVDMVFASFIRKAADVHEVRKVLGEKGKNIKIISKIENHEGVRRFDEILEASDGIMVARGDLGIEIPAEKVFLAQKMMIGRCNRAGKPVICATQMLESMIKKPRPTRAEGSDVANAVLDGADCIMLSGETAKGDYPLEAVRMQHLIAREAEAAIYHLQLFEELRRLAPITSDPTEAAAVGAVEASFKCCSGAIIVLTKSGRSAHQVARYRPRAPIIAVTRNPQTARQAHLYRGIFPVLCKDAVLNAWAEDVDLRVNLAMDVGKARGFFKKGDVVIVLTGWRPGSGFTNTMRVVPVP
Description: The protein samples were separated by SDS-PAGE and transferred to PVDF membranes. The membranes were blocked with 5% nonfat dry milk for 1 h. The membranes were incubated with the corresponding primary antibody at 4° C. overnight and then washed with Tris-buffered saline with 0.1% Tween 20 (TBST) for 5 min each time and incubated for 1 h at room temperature with the secondary antibody-HRP conjugate. After washing with TBST, the membranes were developed using Super-Signal West Pico Chemiluminescent Substrate and visualized by a Tanon-5200 Multi. ImageJ was used for densitometric analysis.
BV-2 cells were treated with the probe Compound 19e (5 μM) or CIAC001 (20 μM) for 2 h at 37° C.; then, cells were transferred on ice and irradiated with 365 nm UV light for 30 min. Cells were washed with 3 mL PBS twice and lysed by buffer containing 250 mM HEPES (pH=7.9), 1.5 M KCl, 5 mM EDTA, 0.5% v/v NP-40, and 1% v/v protease inhibitor cocktail. The cell lysate was centrifuged at 4° C. and 12,000 g for 10 min, and the protein concentration was adjusted to 1 mg/mL by the BCA assay kit. […]
BV-2 cells were scraped with PBS; then, cells were lysed with buffer containing 250 mM HEPES (pH=7.9), 1.5 M KCl, 5 mM EDTA, 0.5% v/v NP-40, and 0.025% v/v protease inhibitor cocktail and incubated on ice for 30 min. […] The lysate was subjected to a click reaction as described above and analyzed by SDS-PAGE. […]

[8] = LPS-treated cells, mRNA by qPCR

C=C(C)[C@@H]1CCC(C)=C[C@H]1c1c(O)cc(C(C)n2nccn2)cc1O (stereo partly drawn) [CIAC001, (1′R,2′R)-4-(1-(2H-1,2,3-Triazol-2-yl)ethyl)-5′-methyl-2′-(prop-1-en-2-yl)-1′,2′,3′,4′-tetrahydro-[1,1′-biphenyl]-2,6-diol]
IC50 (BV-2 cellular viability; Mus musculus, BV-2 cells, read-out: Cellular toxicity (IC50 inhibiting BV-2 cellular viability)): 57.8 ± 7.6 µM | fold less cytotoxicity compared to CBD (BV-2 cellular viability; vs CBD): 6.8 fold | LPS-induced overexpression of IL-1β mRNA ([1]; BV-2 cells): concentration-dependently inhibited | LPS-induced overexpression of IL-6 mRNA ([1]; BV-2 cells): concentration-dependently inhibited | LPS-induced overexpression of TNF-α mRNA ([1]; BV-2 cells): concentration-dependently inhibited | expression of M1 phenotype markers IL-1β and iNOS [1, 8]: inhibited LPS-induced increased expression | expression of M2 phenotype marker IL-10 [1, 8]: attenuated LPS-induced decreased expression | AUC0→t ([2]; brain, 10 mg/kg p.o., mice): 172.8 ng·h/g | AUC0→∞ ([2]; brain, 10 mg/kg p.o., mice): 191.3 ng·h/g | MRT ([2]; brain, 10 mg/kg p.o., mice): 54 min | brain Cmax ([2]; brain, 10 mg/kg p.o., mice): 175.0 ng/g | t1/2 ([2]; brain, 10 mg/kg p.o., mice): 48 min | Kp ([2]; male, BALB/c, mouse, brain / plasma, oral, 10 mg/kg p.o., read-out: B/P ratios within the first 3 h after administration): > 2 | Kp at 0.5 h ([2]; male, BALB/c, mouse, brain / plasma, po, 0.5 h, 10 mg/kg p.o., read-out: B/P ratio): 3.31 ± 0.382 | Kp at 1 h ([2]; male, BALB/c, mouse, brain / plasma, po, 1 h, 10 mg/kg p.o., read-out: B/P ratio): 3.63 ± 0.425 | Kp at 2 h ([2]; male, BALB/c, mouse, brain / plasma, po, 2 h, 10 mg/kg p.o., read-out: B/P ratio): 4.12 ± 1.44 | Kp at 3 h ([2]; male, BALB/c, mouse, brain / plasma, po, 3 h, 10 mg/kg p.o., read-out: B/P ratio): 5.76 ± 1.34 | Tmax ([2]; male, BALB/c, mouse, po, brain, 10 mg/kg p.o., mice, read-out: Tmax): 18 min | BBB permeability and CNS pharmacokinetics compared to CBD ([2]; oral administration): better BBB permeability and CNS pharmacokinetics | brain Cmax relative to CBD ([2]; vs CBD, 10 mg/kg p.o.): approximately 2 times | respiratory rate [3]: did not affect the respiratory rate | body weights [4]: did not change | LPS-induced LDHA mRNA overexpression [5]: significantly inhibited | Alzheimer's disease induced anxiety (arm entry activity, grid traversal) [6]: restored arm entry activity and grid traversal | increase of hippocampal potential [7]: ~500% | binding of Compound 19e to PKM2 in presence of free CIAC001 (PKM2; high concentrations of free CIAC001): competitively inhibited | binding with PKM (PKM2 vs PKM1) in situ and in vitro (PKM2; pull-down, western blot, BV-2): directly binds with PKM2 rather than PKM1
